Assay results: patent US6890954B1, “Uses of 2-bromopalmitate in the treatment of autoimmune disease” (priority 1999, dated 2005)

Legend:
Format in all cases: cell-based
Fyn(16)-eGFP = assay: Localization of Fyn(16)-eGFP in COS-1 cells (fluorescence microscopy, P100/S100 fractionation)
Method: COS-1 cells were transfected with a Fyn(16)-eGFP construct (12) and seeded onto 25-mm glass coverslips 2 days prior to the experiment. Cells were treated overnight with or without 2 bromopalmitate as described above. Plates were washed with PBS and coverslips were mounted onto glass slides in PBS and observed with a 40× and 100×oil immersion lens on a Zeiss Axiophot 2 microscope and photographed with Kodak TMAX 400.
To investigate the effect of 2-bromopalmitate on the intracellular localization of Fyn more precisely, COS-1 cells expressing a Fyn(16)-eGFP construct were examined by immunofluorescence. This construct contains the first 16 amino acids of Fyn fused in frame to eGFP; the chimera is targeted to the plasma membrane and detergent resistant microdomains (12). Cells were cultured with no treatment, with 2-bromopalmitate or with 2-hydroxymyristate, a known myristoylation inhibitor (40,41), as described above, and were examined live by fluorescence microscopy.
Analysis of the subcellular localization of Fyn(16)-eGFP in the presence of 2-bromopalmitate and 2-hydroxymyristate was performed as described above for steady-state Fyn. As depicted in FIG. 2B, in the absence of treatment, 80% of Fyn(16)-eGFP Fyn was membrane bound, whereas in cells treated with 2-bromopalmitate and 2-hydroxymyristate, 65% and 78% of Fyn(16)-eGFP were cytosolic, respectively.

[1] = test system: T cell receptor signaling; assay: TCR-mediated tyrosine phosphorylation in Jurkat T cells (anti-phosphotyrosine immunoblot)
Method: (§1) Jurkat T cells (2×10^6−1×10^7) were centrifuged at 1,000×g for 5 minutes, rinsed with RPMI, resuspended in RPMI supplemented with 2% dialyzed FBS, 0.5% defatted BSA, and incubated with or without 100 μM 2-bromopalmitate at 8×10^5 cells/ml for 3 hours. The cells were centrifuged, washed with RPMI and resuspended in RPMI at 1×10^7−1×10^8 cells/ml. The cells were then activated with anti-CD3 OKT3 mAb (0.3 mg/ml) for 3 min at 37° C., quickly spun down, washed once with cold RPMI and once with cold STE, and lysed in RIPA Samples were solubilized in 1× sample buffer containing 5% β-mercaptoethanol and subjected to SDS-PAGE, followed by immunoblotting with anti-phosphotyrosine antibody (PY99). For analysis of specific proteins, RIPA lysates were immunoprecipitated with the specific antibodies O/N, and immunoblotted for phosphotyrosine. Alternatively, proteins were immunoprecipitated with agarose-conjugated anti phosphotyrosine antibody and blotted for the specific proteins.
Jurkat cells were incubated with 2-bromopalmitate and activated with OKT3 anti-CD3 antibody. Cell lysates were analyzed by immunoblotting with anti phosphotyrosine antibodies. In control cells, stimulation with OKT3 antibodies induced tyrosine phosphorylation of multiple proteins (Fig 5A). […] The most dramatic effect was on a 36 kDa protein, which represents LAT (see below).

PI3K = assay: CD3-mediated tyrosine phosphorylation of PI3K in Jurkat cells; settings: 100 μM 3 hours, OKT3
Method: as §1
In order to identify the individual proteins whose tyrosine phosphorylation is affected by 2-bromopalmitate, lysates were immunoprecipitated with a panel of specific antibodies, and immunoblotted for phosphotyrosine. Alternatively, lysates were immunoprecipitated with an antiphosphotyrosine antibody, and blotted with antibodies to specific proteins.

## CCCCCCCCCCCCCCC(Br)C(=O)O (stereo not drawn) [2-bromopalmitate]
Fyn(16)-eGFP; COS-1, 100 μM overnight, P100/S100, untreated 80% membrane bound
  Fyn(16)-eGFP cytosolic: 65%
Fyn(16)-eGFP; COS-1 live cells, 100 μM overnight
  Fyn(16)-eGFP distribution by fluorescence microscopy: reduced plasma membrane staining
[1]; 100 μM 3 hours, OKT3 3 min
  OKT3-induced tyrosine phosphorylation of several proteins: significantly inhibited
[1]; FIG. 5B
  reduction of tyrosine phosphorylation on the signaling molecules examined, basal activation taken into account: 70-100%
[1]; unactivated
  tyrosine phosphorylation in the presence of 2-bromopalmitate alone (no stimulation), some proteins: Low to moderate increases
PI3K
  PI3K phosphorylation inhibited: 50%
